Results reported in patent US7038033B2, “Nematode neuromuscular junction GABA receptors subunits” (University of Utah Research Foundation, priority 1998, dated 2006).

How the values were obtained:
[1] = target: UNC-49B homomeric GABA receptor (Caenorhabditis elegans, UniProt G5EEY3); assay: Two-electrode voltage clamp of Xenopus oocytes injected with UNC-49B.1 mRNA; type: cell-based, C. elegans; details: for response of oocytes to agonist: applied at 1 mM or 10 mM
Experimental: (§1) Oocytes were removed from Xenopus laevis frogs anesthetized by immersion in 0.2% tricaine for 15-30 minutes. Harvested ovarian lobes were defolliculated by incubation in 2 mg/ml of collagenase (Type IA, Sigma) for 2 hours at room temperature on an orbital shaker in calcium-free ND-96 solution containing in mM: 96 NaCl, 2 KCl, 1 MgCl2, and 5 HEPES (pH=7.6). The oocytes were rinsed 5-6 times with a Barth's solution that contained (in mM): 88 NaCl, 1 KCl, 0.41 CaCl2, 0.33 Ca(NO3)2, 1 MgSO4, 2.4 NaHCO3 and 10 HEPES (pH=7.4), and selected stage V-VI oocytes were stored at 18C in Barth's solution supplemented with 1 mM Na-Pyruvate, 0.01 mg/ml gentamycin and an antibiotic-antimycotic solution containing 100 units/ml of penicillin, 100 μg/ml streptomycin and 0.25 μg/ml of Amphotericin B (Gibco BRL).
(§2) Oocytes were injected with cRNA (prepared using the mMessage mMachine kit, Ambion) into the cytoplasm 24 hours later. Glass capillary tubes (World Precision Instruments) were pulled to a fine tip on a vertical micropipette puller (David Kopf) and broken back to an outside diameter of 21 μm. RNA stocks were diluted to a final concentration of 0.75 μg/μl and injected into the oocytes (32 nl) with a microinjector (World Precision Instruments).
(§3) Electrophysiological recordings were performed 3-7 days following injection and were carried out at room temperature in a control Ringers solution containing in mM: 115 NaCl, 2.5 KCl, 1.0 BaCL2, and 10 HEPES (pH=7.4). Two electrode voltage clamp recordings were obtained with a Geneclamp amplifier (Axon Instruments) using […] KCl-filled microelectrodes (1-5 M). Recordings were carried out at a holding potential of −60 mV. Concentration-effect data were fit to the logistic equation: I=Imax/{1+(EC50/[agonist])^nH}, where Imax is the maximal current, [agonist] is the concentration, EC50 is the concentration of agonist resulting in half maximal activation and nH is an empirical parameter describing the steepness of fit and having the same meaning as the Hill coefficient. NFIT (Island Products) was used for non-linear curve fitting. Data are presented as the mean S.E.M.; n is the number of oocytes tested. All combinations of subunits were tested in parallel in at least two independent experiments (at least 4 oocytes for each combination of mRNAs per experiment). The effect of incorporating the UNC-49C subunit was consistent from one experiment to another. Single channel recordings were performed as described in except that 1 mM GABA was applied continuously. Single channel conductance was determined by fitting Gaussian curves to all points histograms.

UNC-49C = assay: Two-electrode voltage clamp of Xenopus oocytes injected with UNC-49C RNA; type: cell-based, C. elegans; details: any concentration
Experimental: as §1, §2, §3

[2] = target: UNC-49B/C heteromeric GABA receptor (Caenorhabditis elegans, UniProt G5EE10+G5EEY3); assay: Two-electrode voltage clamp of Xenopus oocytes injected with equal amounts of UNC-49B and UNC-49C RNA; type: cell-based; details: Xenopus oocytes co-expressing UNC-49B and UNC-49C
Sequence of UNC-49B/C heteromeric GABA receptor (G5EE10 entry or part of it): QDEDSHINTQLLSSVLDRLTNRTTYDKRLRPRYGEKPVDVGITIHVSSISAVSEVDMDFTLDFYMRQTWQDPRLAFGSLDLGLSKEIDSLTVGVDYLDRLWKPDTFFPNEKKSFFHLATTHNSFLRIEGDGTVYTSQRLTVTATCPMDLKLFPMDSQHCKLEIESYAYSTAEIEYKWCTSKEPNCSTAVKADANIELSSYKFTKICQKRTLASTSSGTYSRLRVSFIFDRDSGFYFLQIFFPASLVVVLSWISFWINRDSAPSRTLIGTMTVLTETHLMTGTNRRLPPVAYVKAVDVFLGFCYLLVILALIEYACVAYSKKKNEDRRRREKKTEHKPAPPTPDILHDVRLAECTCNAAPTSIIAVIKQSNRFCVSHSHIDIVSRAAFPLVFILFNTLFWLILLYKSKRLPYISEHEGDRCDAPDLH
Sequence of UNC-49B/C heteromeric GABA receptor (G5EEY3 entry or part of it): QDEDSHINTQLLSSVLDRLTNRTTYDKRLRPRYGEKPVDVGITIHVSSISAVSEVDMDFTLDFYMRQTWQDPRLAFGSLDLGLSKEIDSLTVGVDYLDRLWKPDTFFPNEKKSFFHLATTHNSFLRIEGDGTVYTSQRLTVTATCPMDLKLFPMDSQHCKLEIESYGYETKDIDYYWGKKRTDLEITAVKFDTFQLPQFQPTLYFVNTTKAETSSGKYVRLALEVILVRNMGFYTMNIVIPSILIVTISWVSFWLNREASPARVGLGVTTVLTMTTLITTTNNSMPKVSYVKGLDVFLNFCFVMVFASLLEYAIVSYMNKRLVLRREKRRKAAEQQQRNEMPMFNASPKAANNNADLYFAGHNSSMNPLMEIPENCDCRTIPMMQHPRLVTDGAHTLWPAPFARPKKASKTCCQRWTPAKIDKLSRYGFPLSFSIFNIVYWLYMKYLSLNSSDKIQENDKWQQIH
Experimental: as §1
Oocytes were injected with cRNA (prepared using the mMessage mMachine kit, Ambion) into the cytoplasm 24 hours later. […]
Electrophysiological recordings were performed 3-7 days following injection and were carried out at room temperature in a control Ringers solution containing in mM: 115 NaCl, 2.5 KCl, 1.0 BaCL2, and 10 HEPES (pH=7.4). […] Single channel conductance was determined by fitting Gaussian curves to all points histograms.

Sequence of UNC-49B homomeric GABA receptor (G5EEY3 entry or part of it): as above

SMILES	current when exposed to agonist ([1]; UNC-49B.1-injected Xenopus oocytes)	EC50 ([1]; UNC-49B.1-injected Xenopus oocytes, holding potential -60 mV, representative experiment, read-out: GABA concentration required to produce half-maximal channel activity (EC50)) [µM]	Hill coefficient ([1]; UNC-49B.1-injected Xenopus oocytes, representative experiment)	response of oocytes to agonist (UNC-49C)	EC50 [2] [µM]	Hill coefficient [2]	currents produced by agonist ([1]; UNC-49B-expressing oocytes, 10 mM, n=4)	response of oocytes to agonist ([1]; UNC-49B-expressing oocytes)
NCCCC(=O)O [GABA, gamma-aminobutyric acid]	robust, desensitizing, dose-dependent current	43.7	2.94	failed to respond	108	1.33		
NCCC(=O)O [β-alanine]				equally unresponsive			only slightly greater than baseline noise	
NCC(=O)O [glycine]				equally unresponsive				did not respond
N[C@@H](CCC(=O)O)C(=O)O [glutamate]				equally unresponsive				did not respond
